Laboratory results taken from patent US10357533B2, “Drug for the effective control of acute and or chronic pain and a method for its administration” (PVP LABS PTE. LTD., priority 2016, dated 2019).
Where a SMILES comes first, the peptide text is derived from it. [ ]: non-standard residue; d: D form.

Legend:
Assay type in all cases: in vivo
mice [1] = assay: Tail flick test in mice, dose-dependent analgesic effect
Protocol: (§1) This stage involved selecting the effective doses of peptide compound in the tail flick test in mice after a single subcutaneous administration of the substance at doses of 0.01, 0.05, 0.1, 0.5, 0.7, 1 and 5 mg/kg. Tail flick method is based on a spinal flexion reflex in response to a progressively increasing effect of thermal radiation on the surface of skin. A pain stimulus was applied to the tail locally, by the action of thermal radiation, using a TSE Systems analgesiometer (Germany). Stimulus intensity was set, corresponding to an increase in temperature from 30° C. to 60° C. over 13 seconds. The tail flick latency (TFL) of 13 seconds was used as the maximum allowable time of stimulation. The mice in test groups were given peptide compound, and control group mice were given the solvent (water for injections) by subcutaneous. Tail flick latency was evaluated 40 minutes after the administration of the study substance or solvent. The analysis of experimental results involved calculating the maximum possible effect (MPE).

mice [2] = assay: Duration of analgesic effect in the tail flick test in mice
Protocol: as §1
The duration of analgesic effect of peptide compound was evaluated in the tail flick test in mice as described above.
Peptide compound was administered to mice subcutaneously at a doses of 0.5 mg/kg, 1.5 mg/kg and 4.5 mg/kg. The control group of animals was given a subcutaneous injection of the vehicle (water for injections). TFL test was evaluated in mice that received peptide compound at 30 minutes and at 1, 2, 4, 6, and 8 hours after dosing.

mice [3] = assay: Antinociceptive tolerance and withdrawal syndrome, tail flick test in mice; conditions: for TFL, s, Baseline values (Mean ± SEM): before administering
Protocol: The tail flick test was the main method of evaluating peptide compound antinociceptive tolerance and withdrawal syndrome. The test involved evaluating tail flick latency (TFLtest). Baseline tail flick latency TFLbase was evaluated before administering the substances. The test was performed in outbred male mice.
The animals were randomized into 4 groups of 10 animals in each group: Group 1: control—the animals were administered subcutaneous injections of water for injections for 14 days; Group 2: single peptide compound administration group—the animals were administered water for injections for 13 days and peptide compound at a dose of 0.5 mg/kg on day 14 by subcutaneous injection; Group 3: chronic peptide compound administration group—the animals were administered with peptide compound at a dose of 0.5 mg/kg by subcutaneous injection for 14 days; Group 4: withdrawal group—the animals were administered with peptide compound at a dose of 0.5 mg/kg by subcutaneous injection for 14 days, withdrawal test was evaluated after 48 hours.
The last injection of the drug/water to groups 1-3 was administered 40 minutes before the test.

mice [4] = assay: Open field test and toxicity of high doses in mice; conditions: intraperitoneally
Protocol: Testing of the influence of the injectable substance based on tetrapeptide (as in example 2) H-Tyr-D-Arg-Phe-Gly-NH2 on the behavior of animals, was provided in the study of the toxicity of high doses of the “open field” test and maintaining balance on a horizontal rod.
The aim of the experiment was to identify an effective dose of the substance that affects the behavior of the animals. It was tested on several animals after administration of different doses of peptide compound.
The experimental and control groups of male mice were taken from the same batch, about the same weight (22-24 g).
The substance was injected intraperitoneally in identical weight amounts to laboratory animals in the experimental and control groups, respectively. […] The measurement was started 15 minutes after injection.
Several groups were organized: without the introduction of the substance, and with the introduction of a solution of morphine or peptide. After 15 from injection we conducted measurement in the following order:
Each animal tested was introduced into a round, not brightly lit arena. The surface is divided into square blocks of 10 cm each. We count locomotor activity of the mouse when it crossed the square. The movement of the mouse in the center of the arena and on the periphery, are recorded separately. We registered the number of times the mouse stands on its hind legs “stand” and the number of times the mouse looks into a “burrow”—ie. holes in the floor. Observations were done visually and were simultaneously entered into a computer using a keyboard (semi-automatic registration).

[5] = 0.05 mg/kg subcutaneous, 40 minutes
[6] = 0.1 mg/kg subcutaneous, 40 minutes
[7] = 0.5 mg/kg subcutaneous, 40 minutes
[8] = 0.7 mg/kg subcutaneous, 40 minutes
[9] = 1 mg/kg subcutaneous, 40 minutes
[10] = 5 mg/kg subcutaneous, 40 minutes
[11] = 0.5 mg/kg subcutaneous for 14 days, withdrawal test after 48 hours

N=C(N)NCCC[C@@H](NC(=O)[C@@H](N)Cc1ccc(O)cc1)C(=O)N[C@@H](Cc1ccccc1)C(=O)NCC(N)=O [Peptide compound, H-Tyr-D-Arg-Phe-Gly-NH2] (H-Y[dR]FG-NH2)
Proportion of the maximum possible effect (MPE), % (mice [1]; 0.01 mg/kg subcutaneous, 40 minutes): 18.7% | TFL, s (Mean ± SEM) (mice [1]; 0.01 mg/kg subcutaneous, 40 minutes after administration): 5.89 ± 0.19 s | Proportion of the maximum possible effect (MPE), % (mice [1]; [5]): 42.5% | TFL, s (Mean ± SEM) (mice [1]; [5]): 7.97 ± 0.78 s | Proportion of the maximum possible effect (MPE), % (mice [1]; [6]): 47.0% | TFL, s (Mean ± SEM) (mice [1]; [6]): 8.36 ± 0.68 s | Proportion of the maximum possible effect (MPE), % (mice [1]; [7]): 55.7% | TFL, s (Mean ± SEM) (mice [1]; [7]): 9.12 ± 0.92 s | Proportion of the maximum possible effect (MPE), % (mice [1]; [8]): 57.5% | TFL, s (Mean ± SEM) (mice [1]; [8]): 10.15 ± 0.74 s | Proportion of the maximum possible effect (MPE), % (mice [1]; [9]): 94.6% | TFL, s (Mean ± SEM) (mice [1]; [9]): 12.53 ± 0.24 s | Proportion of the maximum possible effect (MPE), % (mice [1]; [10]): 100% | TFL, s (Mean ± SEM) (mice [1]; [10]): 13.00 ± 0 s | higher level of activity in comparison with morphine (mice [1]; tail flick): 10-15 times | dose of morphine with close activity (mice [1]; tail flick, peptide compound 0.1 mg/kg dose): ~4 mg/kg | dose of morphine with close activity (mice [1]; tail flick, peptide compound 0.5 mg/kg dose): 7 to 8 mg/kg | dose at which the effect of full analgesia was observed (mice [1]; tail flick, subcutaneous): 1 mg/kg | MPE, % (Mean ± SEM) (mice [2]; 0.5 mg/kg subcutaneous, 0.5 hours): 45.6 ± 13.31% | MPE, % (Mean ± SEM) (mice [2]; 0.5 mg/kg subcutaneous, 1 hours): 49.9 ± 11.54% | MPE, % (Mean ± SEM) (mice [2]; 0.5 mg/kg subcutaneous, 2 hours): 15.5 ± 4.78% | MPE, % (Mean ± SEM) (mice [2]; 0.5 mg/kg subcutaneous, 4 hours): 6.3 ± 2.43% | MPE, % (Mean ± SEM) (mice [2]; 0.5 mg/kg subcutaneous, 6 hours): 6.3 ± 2.94% | MPE, % (Mean ± SEM) (mice [2]; 0.5 mg/kg subcutaneous, 8 hours): −2.6 ± 3.18% | MPE, % (Mean ± SEM) (mice [2]; 1.5 mg/kg subcutaneous, 0.5 hours): 97.2 ± 2.78% | MPE, % (Mean ± SEM) (mice [2]; 1.5 mg/kg subcutaneous, 1 hours): 62.7 ± 14.4% | MPE, % (Mean ± SEM) (mice [2]; 1.5 mg/kg subcutaneous, 2 hours): 33.4 ± 4.85% | MPE, % (Mean ± SEM) (mice [2]; 1.5 mg/kg subcutaneous, 4 hours): 25.6 ± 11.69% | MPE, % (Mean ± SEM) (mice [2]; 1.5 mg/kg subcutaneous, 6 hours): 4.6 ± 7.8% | MPE, % (Mean ± SEM) (mice [2]; 1.5 mg/kg subcutaneous, 8 hours): 5.3 ± 3.46% | MPE, % (Mean ± SEM) (mice [2]; 4.5 mg/kg subcutaneous, 0.5 hours): 100.0 ± 0.00% | MPE, % (Mean ± SEM) (mice [2]; 4.5 mg/kg subcutaneous, 1 hours): 100.0 ± 0.00% | MPE, % (Mean ± SEM) (mice [2]; 4.5 mg/kg subcutaneous, 2 hours): 100.0 ± 0.00% | MPE, % (Mean ± SEM) (mice [2]; 4.5 mg/kg subcutaneous, 4 hours): 49.9 ± 10.21% | MPE, % (Mean ± SEM) (mice [2]; 4.5 mg/kg subcutaneous, 6 hours): 6.5 ± 5.94% | MPE, % (Mean ± SEM) (mice [2]; 4.5 mg/kg subcutaneous, 8 hours): 2.6 ± 4.0% | maximum duration of the analgesic effect (mice [2]; after dosing with 1.5 mg/kg and 4.5 mg/kg): 4 h | MPE, % (Mean ± SEM) (mice [3]; 0.5 mg/kg subcutaneous chronic dosing for 14 days): 50.5 ± 13.92 % | TFL, s, After dosing (Mean ± SEM) (mice [3]; 0.5 mg/kg subcutaneous chronic dosing for 14 days, 40 minutes before the test): 8.6 ± 1.25 s | MPE, % (Mean ± SEM) (mice [3]; [11]): 1.3 ± 3.72% | TFL, s, After dosing (Mean ± SEM) (mice [3]; [11]): 4.8 ± 0.36 s | MPE, % (Mean ± SEM) (mice [3]; 0.5 mg/kg subcutaneous single dose on day 14): 43.3 ± 11.19 % | TFL, s, After dosing (Mean ± SEM) (mice [3]; 0.5 mg/kg subcutaneous single dose on day 14, 40 minutes before the test): 8.0 ± 1.03 s | tolerance or withdrawal syndrome (mice [3]; 0.5 mg/kg subcutaneously, single dosing or chronic treatment): lack of tolerance or withdrawal syndrome | TFL, s, Baseline values (Mean ± SEM) (mice [3]; group 0.5 mg/kg chronic dosing): 4.6 ± 0.26 s | TFL, s, Baseline values (Mean ± SEM) (mice [3]; group 0.5 mg/kg single dose): 4.5 ± 0.36 s | TFL, s, Baseline values (Mean ± SEM) (mice [3]; group 0.5 mg/kg withdrawal): 4.7 ± 0.24 s | doses that do not result in toxic effects (mice [4]): up to 200 EC50 | toxic effects (mice [4]; dose of 100 mg/kg): the animals continued to move actively, breathing was not inhibited, and heart beats were stable | reduced activity moving around the field (mice [4]; open field, dose of 20-100 mg/kg, 15 minutes after injection): 20-25% | reduction in exploratory activity ("stand-burrow") (mice [4]; open field, large doses): 20-30%
